Laboratory results taken from patent US5688830A, “Treatment of neuropathic pain” (Syntex (U.S.A.) Inc., priority 1997, dated 1997).
Read-outs that look alike come from different tables or passages of the source.

Assays:
[1] = test system: cold allodynia in rats; assay: Cold allodynia in vivo assay (chronic constriction injury), acute studies; parameters: species or system rat; conditions: cold allodynia, subcutaneous, acute; for ED50: Rattus norvegicus, sc; for potency (ED50) comparison of (R)-isomers: in words
Experimental: (§1) This assay determines the effectiveness of compounds in relieving one of the symptoms of neuropathic pain produced by unilateral mononeuropathy, namely cold allodynia. Unilateral mononeuropathy was produced in rats using the Chronic Constriction Injury model performed essentially as described by Bennet and Xie, Pain, (1988) 33:87-107. Briefly, the rats were anesthetized with an intraperitoneal dose of pentobarbital sodium (65 mg/kg) with additional doses of anesthetic given as needed. The lateral aspect of each rat's hind limb was shaved and scrubbed with Novasan. Using aseptic technique, an incision was made on the lateral aspect of the hind limb at the mid-thigh level. The biceps femoris was bluntly dissected to expose the sciatic nerve. On the right hind limb of each rat, four loosely tied ligatures were made around the sciatic nerve approximately 1-2 millimeters apart. On the left side of each rat, an identical dissection was performed except that the sciatic nerve was not ligated. The muscle was closed with a continuous suture pattern, and the skin was closed with wound clips. Each rat was placed individually into a plexiglass chamber with a metal plate 6 cm from the bottom. This chamber was filled with ice water to a depth of 2.5 cm above the metal plate, with the temperature of the bath maintained at 0° C. throughout the experiment. A timer was started, and the rat's response latency was measured to the nearest tenth of a second. A "response" was defined as a rapid withdrawal of the right ligated hindpaw completely out of the water while the animal was stationary and not pivoting. An exaggerated limp while the animal was walking was not scored as a response. Maximum immersion time was 20 seconds with a 20 minute interval between trials. The screening criteria were 1) the average of two trials was less than or equal to 13 seconds, and 2) there was consistency across the two trial scores. Animals were screened for hypersensitivity to cold on post-surgery days 4 through 10, and selected for inclusion in dose-response studies based on the criteria described above. The pre-dose screening values were used as the animal's baseline cold allodynia scores. For acute studies, the animals received either subcutaneous or oral injections and were tested for cold allodynia at 1, 3, and sometimes 5 hours post-dose. The selection of doses was similar to that of Example 12C.

[2] = test system: mechanical allodynia in rats; assay: Mechanical allodynia in vivo assay (spinal nerve ligation); parameters: species or system rat; conditions: for analgesia against mechanical allodynia: oral administration; for ED50: Rattus norvegicus, sc
Experimental: This assay determines the effectiveness of compounds in relieving one of the symptoms of neuropathic pain produced by spinal nerve ligation, namely mechanical allodynia. The surgical procedure was performed essentially as described by Kim and Chung, Pain, (1992) 50:355-363. Briefly, the rats were anesthetized with an intraperitoneal dose of pentobarbital sodium (65 mg/kg) with additional doses of anesthetic given as needed. Each animal was then placed in a prone position, a 3 cm lateral incision was made, and the left paraspinal muscles separated from the spinous process at the L4 -S2 level. The L6 transverse process was then removed in order to visually identify the L4 -L6 spinal nerves. The L5 and L6 spinal nerves were then individually isolated and tightly ligated with silk thread. The wound was then closed in layers by silk sutures. Seven to 28 days post-surgery, a calibrated series of eight von Frey filaments were used to assess mechanical allodynia. Animals were housed individually in plexiglass cages with a wire mesh floor. Filaments of increasing stiffness were applied perpendicular to the midplantar surface in the sciatic nerve distribution areas of the left hindpaw and were slowly depressed (4-6 seconds) until bending occurred. The filament application order and number of trials were determined by the up-down method of Dixon (Chaplan, et al., J. Neurosci. Methods, (1994) 53:55-63). Flinching and licking of the paw and paw withdrawal on the ligated side were all considered positive responses. The 50% paw withdrawal threshold (g) was then calculated and compared to control. The doses for the acute and chronic studies were selected on the basis of prior assessment of the acute effects on the test compounds on the gross behavior in normal rats. Briefly, the rats were weighed and grouped into cages, dosed with the test compound, and observed continuously for changes in behavior. […] Pinna and corneal reflexes were tested by using a piece of natural hair from a brush that is attached to a glass rod. The righting reflexes were tested by placing the rat flat on its back, and recording the time it takes for the animal to right itself onto all four legs. The posture and gait were assessed by placing the rat on the floor.

[3] = test system: cold allodynia in rats; assay: Cold allodynia in vivo assay (chronic constriction injury), chronic studies; parameters: species or system rat; conditions: oral, chronic; (R)-enantiomer 10 and 20 mg/kg, sub-threshold
Experimental: as §1, with “chronic” for “acute”, “animals received subcutaneous or oral injections twice daily for 4 days and once on day 5. The animals were tested for allodynia on day 1 at 1, 3 and 5 hours following the 8 am dose, and at 5 hours following the 8 am dose on days 3 and 5. Two days later, the animals were tested for cold allodynia to assess whether there was a wash-out of the drug being tested. Following this screening for cold allodynia, the animals in two of the three chronic studies” for “animals”, “of the drug” for “and were tested for cold allodynia”, “a dose previously shown” for “1, 3, and sometimes 5 hours post-dose. The selection of doses was similar”, “produce significant anti-allodynic effects acutely. […]” for “that of Example 12C.”

[4] = Adverse effects / gross behavior on dosing; assay type: in vivo, rat; conditions: for doses with adverse side effects / behavioral problems / adverse side effects observed: cold allodynia acute study; for adverse side effects observed: doses higher than 60 mg/kg
Experimental: The doses for the acute and chronic studies were selected on the basis of prior assessment of the acute effects on the test compounds on the gross behavior in normal rats. Briefly, the rats were weighed and grouped into cages, dosed with the test compound, and observed continuously for changes in behavior. […] Pinna and corneal reflexes were tested by using a piece of natural hair from a brush that is attached to a glass rod. The righting reflexes were tested by placing the rat flat on its back, and recording the time it takes for the animal to right itself onto all four legs. The posture and gait were assessed by placing the rat on the floor.
The selection of doses was similar to that of Example 12C.

[5] = test system: neuropathic pain models; assay: Neuropathic pain models / standard assays (summary statements); assay type: in vivo; conditions: summary statement, (S)- vs (R)-enantiomer
[6] = test system: voltage-gated sodium channels ([3H]BTX binding, rat cortex); assay: [3H]BTX binding assay, rat cortex membranes; conditions: rat brain cortex membranes
Experimental: The following assays characterize the interaction of the compounds of Formula I with ligand binding sites on voltage-gated sodium channels.
Frozen tissues were obtained from Pel-Freez Biologicals (Rogers, AR). Tissues were homogenized in 10 volumes of a Tris-sucrose buffer (10 mM Tris-HCl, 250 mM sucrose, pH 7.4 at 4° C.) using 10 strokes with a glass-glass, hand-held homogenizer. The homogenates were filtered through nylon mesh and then centrifuged at 1,000×g for 15 minutes. The pellets were resuspended in a Hepes buffer (50 mM Hepes, 130 mM choline chloride, 5 mM glucose, 5.4 mM KCl, pH 7.4 at 4° C.). The resuspended pellets were centrifuged at 1,000×g for 15 minutes, resuspended in a Hepes buffer (50 mM Hepes, 130 mM choline chloride, 5 mM glucose, 5.4 mM KCl, pH 7.4 at 25° C.) and, frozen at -70° C. until used in binding assays.
Nonspecific binding was defined in the presence of 1 mM veratridine. Unless otherwise specified, PbTx (0.1 μM) and LqTx (50 μg/ml) were included in the assays. Membranes were incubated for 60 minutes at 25° C. and then filtered using GF/B glass fiber filters that had been pretreated with 0.3% PEI. Filters were rinsed with 3×1 ml of ice cold 50 mM Tris-HCl (pH 7.4 at 4° C.) and the bound radioactivity was determined by scintillation counting (Packard Top-count).

[7] = mechanical allodynia, subcutaneous
[8] = subcutaneous, mechanical allodynia study

Structure (SMILES)	ED50 ([1]; 1 hr, read-out: ED50 1 hr)	ED50 ([1]; 3 hr, read-out: ED50 3 hr)	Emax 1 hr ([1]; 1 hr)	Emax 3 hr ([1]; 3 hr)	EDmax [2, 7]	maximal analgesic activity (Emax) [2, 7]	analgesia against mechanical allodynia [2]	ED50 [2, 7]	doses with adverse side effects / behavioral problems ([4]; subcutaneous)	adverse side effects observed ([4]; subcutaneous)	potency (ED50) comparison of (R)-isomers [1]	other results
Cc1cccc(C)c1OCC(C)N (racemic) [Formula II racemate, 2-(2,6-Dimethylphenoxy)-1-methyl-ethylamine, reference compound]	29.8 mg/kg	33.6 mg/kg	73%	80%	29%	29%	did not produce analgesia	–	–	–	–	anti-allodynic effect after chronic oral dosing [3]: no anti-allodynic effect
CNC(C)COc1c(C)cccc1C (racemic) [Formula III racemate, [2-(2,6-dimethylphenoxy)-1-methylethyl]-methylamine]	–	–	–	–	67%	67%	–	31.3 mg/kg	–	–	–	–
CCCNC(C)COc1c(C)cccc1C (racemic) [Formula IV racemate, [2-(2,6-Dimethylphenoxy)-1-methylethyl]-propylamine, reference compound]	–	–	–	–	–	–	–	> 30 mg/kg	–	–	–	potency (ED50) comparison ([2]; mechanical allodynia, subcutaneous, in words): less potent than compound III; adverse events [4, 8]: adverse events; dose at which adverse events occur [4, 8]: 60 mg/kg; adverse events ([4]; subcutaneous, mechanical allodynia study, listed as Compound IV): convulsions and severe ataxia
CCN[C@@H](C)COc1c(C)cccc1C [Formula I (S)-, (S)-[2-(2,6-dimethylphenoxy)-1-methylethyl]-ethylamine]	12.8 mg/kg	10 mg/kg	100%	58%	–	–	did not produce analgesia	–	higher than 60 mg/kg	convulsions and immobility	–	deleterious side effects [5]: deleterious side effects are largely confined to the (S)-enantiomer; potency of (R)- versus (S)-enantiomer in inhibiting [3H]BTX binding [6]: no difference in the potencies; doses with adverse side effects ([4]; oral administration, mechanical allodynia study): greater than 60 mg/kg
CN[C@H](C)COc1c(C)cccc1C [Formula III (R)-, [2-(2,6-dimethylphenoxy)-1-methylethyl]-methylamine, reference compound]	26.1 mg/kg	31.4 mg/kg	76%	74%	–	–	–	–	–	–	comparable potency	–
CCCN[C@H](C)COc1c(C)cccc1C [Formula IV (R)-, [2-(2,6-Dimethylphenoxy)-1-methylethyl]-propylamine, reference compound]	28.4 mg/kg	29.9 mg/kg	74%	74%	–	–	–	–	higher than 60 mg/kg	splayed limbs and abnormal righting reflexes	comparable potency	–
